Experimental data: US20070166547A1, “Use of a layer consisting of hydrophobic linear, or two-dimensional polycyclic aromatics as a barrier layer or an encapsulation and electric components constructed with a layer of this type and comprising organic polymers” (priority 2003, published 2007)

Assays:
[1] = system: adenosine-sensitive receptors of thrombocytes; assay: ADP-induced aggregation of thrombocytes in vitro (Born method); type: cell-based, rabbit; details: 3 min incubation, ADP 10^−5 M
Description: The compounds according to the invention were studied for the effect of aggregation of thrombocytes induced by a preliminary introduction of a solution of an aggregation inductor with a competing introduction of the compounds according to the invention.
The aggregation of thrombocytes was studied by the Born method based on determination of the changes in the optical density of plasma enriched with thrombocytes after its incubation with an aggregation inductor.
Adenozinediphosphoric acid (ADP) was selected as an aggregation inductor, which in fact is an aggregation generator. Use was made of a sample (registration number 885) of the Sigma Diagnostics Company (USA) in final concentration of 10^−5 M.
The experiments were carried out on male rabbits of the “Chinchilla” breed having a mass of 2.7±0.3 kg. 18-24 hours prior to the experiment they were deprived of feed while preserving free access to water.
To obtain plasma enriched with thrombocytes, blood was taken from a cut of a marginal vein of the rabbit ear, the sample was stabilized with 3.8% of sodium citrate solution in a ratio of 9:1 and centrifuged at 200 g (1000 rev/min) for 10 minutes. The top supernatant layer enriched with thrombocytes was transferred by an automatic dropper into a silicone test tube and kept at 37° C. The plasma enriched with thrombocytes contained, on the average, […]. If this content exceeded the specified 3×10^8 blood platelets in 1 liter, this sample was diluted to the necessary concentration with plasma deprived of thrombocytes, which was obtained by centrifuging blood at 650 g during 10 minutes.
The measurements of the optical density of the samples were made on two-channel aggregometer of the “Chronolog” Company (USA). A flask containing 490 mkl of plasma rich with thrombocytes was placed in a device, into which a magnetic agitator covered with Teflon was lowered. The index of maximum amplitude of aggregation (MA) in percent of a fall of the plasma optical density under effect of the aggregation inductor was recorded. The control index MA of plasma was compared with the MA of plasma incubated for 3 minutes with different concentrations of the compounds: from 10^−3 to 10^−7 in vitro experiments or with plasma obtained 15, 30, 60 and 120 minutes after intravenous administration of different doses of the compounds in vivo experiments.
The process of aggregation of thrombocytes was recorded with the help of a computer; on the monitor screen the there were depicted curves reflecting changes of the optical density of the plasma enriched which was taken as a standard 100% compared to the optical density of the non-thrombocyte plasma taken for 0% content of thrombocytes.
Under in vitro conditions a flask was filled with blood plasma enriched with thrombocytes, to which an aggregation inductor ADP was added at a concentration of 10^−5 M, incubated for 3 minutes, and then the compounds according to the invention were introduced directly into the flask. Their action by aggregation of thrombocytes was studied after 3-minute incubation in a wide range of concentrations from 10^−3 to 10^−7 M to minimum concentration of 10^−7 M not inducing no effect of suppressing the aggregation.

plasma hemostasis = assay: Partial activated thromboplastin time (PATT) after intravenous administration; type: in vivo, rabbit; details: for effect on the PATT (overall): doses 15.0, 30.0, 60.0 mg/kg
Description: The investigations were performed on 72 rabbits of the “Chinchilla” breed with a mass of 2.5±0.3 kg, who were administered which solutions of compounds 2, 15, 21, 37 in doses of 15, 30 and 60 mg/kg intravenously. The experiments included the thrombin-test (series No. 7300) and the coagulability-test (series No. 5000) purchased from the scientific-and-production association (SPA) “Renam”, thromboplastin (series No. 240600) and calcium chloride purchased from the SPA “MedioLab”
The static parameters of the blood and plasma coagulation (partial activated thromboplastin time, thrombin time, maximum coagulation activity (test for auto coagulation) were determined using the Behnk Electronic coagulometer (Germany). The operating principle of this instrument is based on the fact that the formed blood clot breaks the contacts of the pulse counter in the flask-pin circuit, said pin permanently oscillating in a vertical plane. The moment of formation of the clot is registered by stopping the stop watch hand.
The measurements were effected at a constant temperature of 37° C. maintained by a temperature control unit.
Compounds 2, 15, 21, 37 according to the invention at a concentration of 15, 30 and 60 mg/kg were introduced to the above experimental animals intravenously, and their blood samples were taken off 15, 30, 60 and 120 minutes after the administration.
The blood plasma samples deprived of thrombocytes obtained as described above in an amount of 0.1 ml were put in a coagulometer flask and heated for 1 minute at 37° C., then 0.1 ml of 0.277% solution of calcium chloride was added and the blood clotting time was registered. The coagulation time T in seconds of the control plasma and plasma obtained after intravenous administration after 15, 30, 60 and 120 minutes were compared.

SMILES | MA - fall of optical density of plasma, % to the standard ([1]; 10^−3 M) [%] | MA - fall of optical density of plasma, % to the standard ([1]; 10^−4 M) [%] | MA - fall of optical density of plasma, % to the standard ([1]; 10^−5 M) [%] | MA - drop of optical density, % compared to control ([1]; 10^−6 M) [%] | MA - drop of optical density, % compared to control ([1]; 10^−7 M) [%] | T, s after 15 minutes (PATT) (plasma hemostasis; dose 15.0 mg/kg intravenously) [s] | T, s after 30 minutes (PATT) (plasma hemostasis; dose 15.0 mg/kg intravenously) [s] | T, s after 60 minutes (PATT) (plasma hemostasis; dose 15.0 mg/kg intravenously) [s] | T, s after 120 minutes (PATT) (plasma hemostasis; dose 15.0 mg/kg intravenously) [s] | T, s after 15 minutes (PATT) (plasma hemostasis; dose 30.0 mg/kg intravenously) [s] | T, s after 30 minutes (PATT) (plasma hemostasis; dose 30.0 mg/kg intravenously) [s] | T, s after 60 minutes (PATT) (plasma hemostasis; dose 30.0 mg/kg intravenously) [s] | T, s after 120 minutes (PATT) (plasma hemostasis; dose 30.0 mg/kg intravenously) [s] | T, s after 15 minutes (PATT) (plasma hemostasis; dose 60.0 mg/kg intravenously) [s] | T, s after 30 minutes (PATT) (plasma hemostasis; dose 60.0 mg/kg intravenously) [s] | T, s after 60 minutes (PATT) (plasma hemostasis; dose 60.0 mg/kg intravenously) [s] | T, s after 120 minutes (PATT) (plasma hemostasis; dose 60.0 mg/kg intravenously) [s] | effect on the PATT (overall) (plasma hemostasis)
Nc1ccnc2c(=O)n([C@@H]3O[C@H](CO)[C@@H](O)[C@H]3O)[nH]c(=O)c12 [Compound 2, 4-amino-7-(β-D-ribofuranosile)pyrido[2,3-d]-6H-pyridazine-5,8-dione] | 51.4 ± 2.7 | 50.4 ± 1.7 | 48.2 ± 1.0 | 50.1 ± 2.0 | 50.8 ± 2.2 | 37.0 ± 0.1 | 37.0 ± 0.2 | 36.9 ± 0.1 | 37.0 ± 0.3 | 32.7 ± 0.5 | 32.0 ± 0.1 | 32.2 ± 0.1 | 32.1 ± 0.2 | 32.3 ± 0.2 | 32.4 ± 0.1 | 32.3 ± 0.1 | 32.4 ± 0.1 | do not affect the PATT
Nc1cccc2c(=O)[nH][nH]c(=O)c12.[Na] [Compound 15, sodium salt of 5-amino-benzo[d]-3H-pyridazine-1,4-dione] | 44.8 ± 2.8 | 46.3 ± 1.7 | 39.8 ± 3.1 | 47.3 ± 1.8 | 49.3 ± 1.4 | 37.0 ± 0.1 | 37.0 ± 0.2 | 36.9 ± 0.1 | 37.0 ± 0.3 | 32.9 ± 0.8 | 32.1 ± 0.1 | 32.0 ± 0.2 | 32.0 ± 0.1 | 32.2 ± 0.1 | 32.2 ± 0.1 | 32.1 ± 0.2 | 32.2 ± 0.1 | do not affect the PATT
Nc1cnc2c(=O)n([C@@H]3O[C@H](CO)[C@@H](O)[C@H]3O)[nH]c(=O)c2n1.[Na] [Compound 21, sodium salt of 3-amino-7-(β-D-ribofuranosile)pyrazine[2,3-d]-6H-pyridazine-5,8-dione] | 47.1 ± 3.0 | 49.2 ± 2.1 | 41.8 ± 2.4 | 49.6 ± 1.7 | 49.7 ± 2.1 | 37.1 ± 0.1 | 37.2 ± 0.1 | 36.9 ± 0.1 | 37.0 ± 0.2 | 32.8 ± 0.4 | 32.0 ± 0.1 | 32.2 ± 0.1 | 32.1 ± 0.1 | 32.0 ± 0.4 | 32.1 ± 0.2 | 32.0 ± 0.1 | 32.3 ± 0.2 | do not affect the PATT
